In US6207397A, “In vitro fluorescence polarization assay” (ARIAD Pharmaceuticals, Inc., priority 1997, dated 2001):
Where two headings read alike, the source gives them in different places. Square brackets hold non-standard residues; d marks the D form. Peptide text beside a SMILES is read from it. * marks the point of attachment. 5FAM = O=C1OC2(c3ccc(O)cc3Oc3cc(O)ccc32)c2ccc(C(=O)*)cc21; pY = N[C@@H](Cc1ccc(OP(=O)(O)O)cc1)C(=O)O

Experiments:
[1] = target: T1, Src-SH2 domain (Homo sapiens, UniProt P12931); experiment: Fluorescence polarization saturation experiment of probe FMT1 with Src-SH2; type: binding
T1 construct: Human Src encoding residues 145-251; made in house; host or cells: E. coli BL21 (DE3), pT7 expression vector
Experimental: Human Src encoding residues 145-251 [Tanaka, A. and Fujita, D. J., Mol. Cell. Biol. 6:3900-3909 (1986)] was cloned into the pT7 expression vector and transformed into E. coli BL21 (DE3). Protein was produced from the growth and induction of 27 liters of culture in minimal medium. In a typical preparation, the culture was grown at 37° C. to an optical density (OD) of 1.0 at 595 nm. The culture was induced with 1 mM isopropyl--D-thiogalactopyranoside (IPTG) and the temperature was dropped to 25° C. The culture was harvested 21 hours later.
(§1) All polarization methods were performed on an FPM2 96-well plate reader (Jolley), with standard cutoff filters (excitation=485 nm; emission=530 nm). Saturation experiments were used to explore various conditions for the assay, with the aim of maximizing the protein and assay stability, and of determining Kd s of the protein/probe interaction.
For saturation experiments, fixed concentrations of probe were used, and increasing concentrations of Src-SH2 were added. This is the reverse of the way such assays are commonly done with radioactive ligands.
A saturation experiment was conducted in which the Src-SH2 domain is varied in concentration from a high of 40 uM to a low of 39 nM. The fluorescent probe FMT1 (FIG. 1) was kept at a fixed concentration of 20 nM. Amino acid analysis was used to quantitate both the protein and probe concentrations. The results are illustrated in the saturation curve and Scatchard analysis of FIGS. 2A and 2B, respectively from this experiment.

[2] = target: T2, Src-SH2 (Homo sapiens, UniProt P12931); experiment: Fluorescence polarization Src-SH2 competition assay with peptides; type: binding; settings: for IC50: TABLE 1, fixed probe and Src-SH2, increasing peptide, read-out: Peptide competitive IC50
T2 construct: Human Src encoding residues 145-251; made in house; host or cells: E. coli BL21 (DE3), pT7 expression vector
Experimental: as §1
For competition experiments, fixed concentrations of probe and protein were used, and increasing concentrations of peptides were added.
All buffer components were low-fluorescence grade (Panvera Corporation). Standard (STD) buffer contains 20 mM phosphate (pH 7.4), 100 mM NaCl, 2 mM DTT, 1 mM EDTA, and 100 ug/ml BGG. Standard buffer is prepared by preparing NaCl, EDTA and phosphate stocks in Millipore water or the cleanest available water supply. The buffer is brought to volume in the same clean water.
The SRC protein is used at a concentration of 0.75 uM final. An example of SRC stock solution is 416.6 uM in STD buffer. […] It is desirable to make a 2× stock of this. For assays where the tighter-binding pYpYpYIE probe is used, the Src protein concentration can be reduced to 150 nM. In general, the concentration of the protein can be adjusted to match the affinity of the probe.
Fluor-GpYEEI is used as the probe at a concentration of 20 nM final. The probe stock sent is 10 uM in STD buffer.

[3] = target: GRB2 SH2 (Homo sapiens, UniProt P62993); settings: saturation with GRB2 SH2 protein
GRB2 SH2, sequence (P62993 55-152): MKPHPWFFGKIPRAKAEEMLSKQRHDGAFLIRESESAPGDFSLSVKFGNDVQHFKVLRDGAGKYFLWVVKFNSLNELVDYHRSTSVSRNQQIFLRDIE
Experimental: The human GRB2 protein tested in the assay comprised amino acid residues 55-152 of huGRB2 [see Cell 70: 431-442 (1992)], although longer sequences encompassing the SH2 domain may also be used. Production and purification of the protein domain was similar to methods described above, especially the use of a phosphotyrosine column to purify the GRB2 SH2domain.
As in previous examples, saturation experiments were performed with fixed concentrations of probe and increasing concentrations of Grb-2-SH2.
The following Grb-2-specific SH2 probe ("FPgb2") was synthesized using the techniques described in Example 1 [drawing 1] 2, Fluor-GpYVNV-NH2

[4] = Hydrophobicity of the BODIPY-TRX peptide probe; type: physicochemical; settings: resultant peptide
Description: (§2) Synthesis of the peptide portion of the probe was as described in Example 1, with production of the peptide NH2-pYEEI. The probe was further synthesized by coupling the free amine peptide, NH2-pYEEI, with the succinimidyl ester of the BODIPY-TRX probe in a 66% DMSO buffer (34% 0.1 MNaBicarbonate). Completion of reaction was monitored by silica gel TLC (4:1:1, butanol, H2O , Acetic Acid solvent system), and was done by 24 hrs.

[5] = target: T2, Src-SH2; experiment: Fluorescence polarization saturation experiment with Src-SH2 using an alternate (BODIPY-TRX) probe; type: binding; settings: filters 591/635
Description: A competition assay was developed for Src-SH2 (applicable to any fragment of Src containing the SH2 domain) with a non-fluorescein fluorophore. The fluorophore is one of a family of fluorescent molecules containing the core fluorophore, 4,4-difluoro-4 bora-3a,4a-diaza-s-indacene (commerciallyavailable from Molecular Probes Inc.). The structure of the fluorophore-peptide probe is: [drawing 2]
Specifically, the excitation/emission filters used with the above are 591/635, compared to 485/530 for fluorescein.
as §2
The only difference was the use of an alternate set of filters for the red probe, as described in A above.

[6] = target: T3, Src SH3 (Homo sapiens, UniProt P12931); experiment: Fluorescence polarization saturation experiment, Src SH3 binding assay with Src-SH2-SH3 protein; settings: SH3 probe
T3 construct: SH3-specific probe
Description: Biol. 7(5): 1978-1983 (1987)], and a probe specific for the Src SH3 domain (in place of the Src-specific SH2 probe). Note that larger or smaller Src proteins may be used, so long as they include the Src SH3 domain (with or without the Src SH2 domain). Production and purification of the protein were essentially as described above, e.g., see Example 3. The following details are provided:
The following Src SH3 specific probe ("FPSH3") was synthesized using the techniques described in Example 1: […]

[7] = target: Src SH2-SH3 (Homo sapiens, UniProt P12931); experiment: Fluorescence polarization saturation experiment, Src SH2-SH3 double binding assay; settings: saturation with Src-SH2-SH3; SH2-SH3 probe
Description: Proteins such as Src contain both an SH2 and an SH3 domain. Certain proteins can bind to such SH2- SH3 proteins not through SH2 or SH3 domains alone, but through both domains at once. One example is the protein, p130CAS, which is thought to bind Src via both SH2 and SH3 domains. The SH3 and SH2 binding sequences of p130CAS have been identified by deletional and site-specific mutagenesis (Nakamoto et. al., JBC 271, 8959-8965, 1996). […] Fluorescent probes for FP assays were designed based on these sequences. Such probes can be used in assays that allow simultaneous screening for both SH2-specific and SH3-specific inhibitors. One such probe ("FPC130") is the following:
This is the native sequence from p130CAS (733-767). Derivative probes based on the foregoing but using different component SH2 and/or SH3 sequences may be used to vary the affinity or protein specificity, and especially to increase the overall affinity of probe for the desired target protein.

CC[C@H](C)[C@H](NC(=O)[C@H](CCC(=O)O)NC(=O)[C@H](CCC(=O)O)NC(=O)[C@H](Cc1ccc(OP(=O)(O)O)cc1)NC(=O)CNC(=O)c1ccc2c(c1)C(=O)OC21c2ccc(O)cc2Oc2cc(O)ccc21)C(N)=O [FMT1, fluorescein-G-pYEEI-NH2] (5FAM-G[pY]EEI-NH2)
Kd ([1]; FIG. 2A, error of 0.008, FMT1 fixed at 20 nM, Src-SH2 39 nM to 40 uM, read-out: Calculated Kd (non-linear least squares fit of saturation experiment)): 240 nM
Kd ([1]; FIG. 2B, R value 0.992 for the linear fit, read-out: Calculated Kd (Scatchard analysis)): 260 nM
Binding mode in saturation experiment ([1]; FIGS. 2A and 2B): saturable binding to a single site is observed
Kd ([1]; standard buffer conditions, read-out: Kd towards Src-SH2): ~300 nM

CC[C@H](C)[C@H](NC(=O)[C@H](Cc1ccc(OP(=O)(O)O)cc1)NC(=O)[C@H](Cc1ccc(OP(=O)(O)O)cc1)NC(=O)[C@H](Cc1ccc(OP(=O)(O)O)cc1)NC(=O)c1ccc2c(c1)C(=O)OC21c2ccc(O)cc2Oc2cc(O)ccc21)C(=O)N[C@@H](CCC(=O)O)C(N)=O [pYpYpYIE probe, fluorescein-pYpYpYIE-NH2] (5FAM-[pY][pY][pY]IE-NH2)
Relative binding of probe to Src ([2]; probe allowing Src protein reduced to 150 nM): tighter-binding

Ac-pYpYEEI
IC50 [2]: 1500 nM

CC(C)[C@H](NC(=O)[C@H](CC(N)=O)NC(=O)[C@@H](NC(=O)[C@H](Cc1ccc(OP(=O)(O)O)cc1)NC(=O)CNC(=O)c1ccc2c(c1)C(=O)OC21c2ccc(O)cc2Oc2cc(O)ccc21)C(C)C)C(N)=O [FPgb2, Fluor-GpYVNV-NH2] (5FAM-G[pY]VNV-NH2)
Kd and total mP difference on protein binding [3]: appropriate Kd and total mP difference on protein binding

Ac-pYpYpYIE
IC50 [2]: 500 nM

Ac-pYGGL
IC50 [2]: 700000 nM

CC[C@H](C)[C@H](NC(=O)[C@H](CCC(=O)O)NC(=O)[C@H](CCC(=O)O)NC(=O)[C@H](Cc1ccc(OP(=O)(O)O)cc1)NC(=O)CCCCCNC(=O)CC1=C(C)C2=Cc3ccc(-c4ccc(OC)cc4)n3[B-](F)(F)[N+]2=C1C)C(N)=O [BODIPY-TRX probe]
Hydrophobicity [4]: quite hydrophobic
Kd and total mP difference on protein binding [5]: adequate Kd and total mP difference on protein binding

CC(C)C[C@H](NC(=O)[C@@H]1CCCN1C(=O)c1ccc2c(c1)C(=O)OC21c2ccc(O)cc2Oc2cc(O)ccc21)C(=O)N[C@@H](C)C(=O)N[C@@H](CCCNC(=N)N)C(=O)N[C@@H](CCCNC(=N)N)C(=O)N1CCC[C@H]1C(=O)N[C@@H](CC(C)C)C(=O)N1CCC[C@H]1C(=O)N1CCC[C@H]1C(=O)N[C@@H](CC(C)C)C(=O)N1CCC[C@H]1C(N)=O [FPSH3] (5FAM-PLARRPLPPLP-NH2)
Kd and total mP difference on protein binding [6]: appropriate Kd and total mP difference on protein binding

Ac-pYTGL
IC50 [2]: 100000 nM

Fluor-RPLPSPPKFTSQDSPDGQYENSEGGWMEDpYDYVHL [FPC130]
Kd and total mP difference on protein binding [7]: appropriate Kd and total mP difference on protein binding
